These results are taken from US11505537B2, “Compositions comprising methylphenidate-prodrugs, processes of making and using the same” (KemPharm, Inc., priority 2016, dated 2022).

A short description of series [1]: Human single-dose PK of 32 mg d-MPH-CO2CH2-nicotinoyl-L-Ser oral liquid, fasted. Particulars: single 32 mg oral liquid. The source says: Twenty-four (24) healthy volunteers were enrolled in this open-label, single-dose, two-treatment, two-period PK trial.
Series [2] in a line: Oral PK in rats of d- and l-isomers (unconjugated MPH, L-Ser and L-Thr conjugates) at equimolar doses. The conditions noted are these: for d:l Ratio Tmax / d:l Ratio AUC / d:l Ratio Cmax: d-isomer vs l-isomer; for d:l Ratio AUC: mean AUC; for d:l Ratio Cmax: mean Cmax; for Cmax: equimolar doses. On the procedure:
In another embodiment, the following compounds were dosed orally in rats at equimolar doses: d-MPH.HCl, l-MPH.HCl, d-MPH-CO2CH2-nicotinoyl-L-Ser, l-MPH-CO2CH2-nicotinoyl-L-Ser, d-MPH-CO2CH2-nicotinoyl-L-Thr, and l-MPH-CO2CH2-nicotinoyl-L-Thr.

Series [3] is described as follows: Oral PK in rats, conjugate vs unconjugated d-methylphenidate (LC-MS/MS). Particulars: analyte d-methylphenidate, […] d-MPH content, hydrochloride. In kind it is in vivo. On the procedure: (§1) The plasma concentrations of d-methylphenidate were measured by LC-MS/MS over time. The oral plasma concentrations of d-methylphenidate released from d-threo-MPH-CO2CH2-nicotinoyl-L-Ser were compared with unconjugated d-methylphenidate after oral administration in rats.
The human equivalent dose for the conjugate was 0.8 mg/kg as compared to 0.4 mg/kg for unconjugated d-methylphenidate.

Series [4] is described as follows: Intranasal PK in rats, conjugate vs unconjugated d-methylphenidate. Particulars: analyte d-methylphenidate. In kind it is in vivo. On the procedure:
as §1
As shown in FIG. 5 and Table 10, after 4.75 mg conjugate was intranasally administered to rats, plasma concentrations of d-methylphenidate released from the conjugate are substantially flat from about 0 to about 1 hour following intranasal administration in a rat. […] Conjugated d-methylphenidate was about 6% AUC and 5% Cmax of unconjugated d-methylphenidate.

Series [5] in a line: Intravenous PK in rats, conjugate vs unconjugated d-methylphenidate. In kind it is in vivo. Particulars: analyte d-methylphenidate.
Series [6] is described as follows: Solubility in IPA/IPAc inferred from recrystallization. In kind it is physicochemical. The conditions noted are these: isopropylalcohol/isopropylacetate, from recrystallization yields. The text has this:
In one embodiment, the conjugate d/l-MPH-CO2CH2-nicotinoyl-L-Ser was recrystallized from a mixture (1:1) of isopropylalcohol (IPA) and isopropylacetate (IPAc) yielding approximately 45.2% of product (purity of about 98% by HPLC). A similar amount of d-MPH-CO2CH2-nicotinoyl-L-Ser recrystallized from IPA and IPAc (2:1) yielded approximately 81.5% of product (purity of about 97.6% by HPLC).

The nature of series [7]: Human single- and multiple-dose PK of d-MPH HCl/conjugate dose mixtures vs Concerta 54 mg, once daily for 7 days, fasted. In kind it is in vivo. The source says:
Forty-eight (48) healthy volunteers (12 per treatment arm) were enrolled in this open-label, single- and multiple-dose, four-treatment, one-period parallel PK trial.
Eligible subjects included healthy male and female volunteers between the age of 18 and 55 years with a body mass index (BMI) between 18 and 32 kg/m^2 and a body weight between 60 and 100 kg at screening. The primary objective of the study was to assess the single and multiple dose pharmacokinetics of d-MPH-CO2CH2-nicotinoyl-L-Ser and d-methylphenidate following multiple doses of different combinations of d-methylphenidate HCl/d-MPH-CO2CH2-nicotinoyl-L-Ser Chloride administered orally once per day for 7 days in healthy volunteers under fasted conditions, compared to the same dosing regimen with a Concerta® tablet. After the 1st dose of study drug (Day 1), blood samples for PK were collected at pre-dose (0 hour; within 1 hour prior to dosing), and at 0.5, 1, 1.5, 2, 2.5, 3, 4.5, 6, 7, 7.5, 8, 8.5, 9, 10, 12, 13, and 24 hours±5 minutes post-dose. The 24-hr post-dose blood sample was taken before administration of the 2nd dose of study drug. After the 2nd, 3rd, 4th, 5th and 6th dose of study drug (Days 2-6), blood samples were collected at pre-dose (within 10 minutes prior to dosing), and at 1.5 and 8 hours±5 minutes post-dose. The pre-dose sample on Day 2 was the same as the 24-hour post-dose sample after the 1st dose. After the last dose (7th dose) of study drug (Day 7), blood samples for PK were collected at pre-dose (within 10 minutes prior to dosing), and at 0.5, 1, 1.5, 2, 2.5, 3, 4.5, 6, 7, 7.5, 8, 8.5, 9, 10, 12, 13, 24, 36, 48, 60 and 72 hours±5 minutes post-dose.

Series [8] in a line: Human single-dose PK of 60 mg d-MPH-CO2CH2-nicotinoyl-L-Ser chloride capsules, fasted and fed. In kind it is in vivo. The conditions noted are these: for AUC(0-inf) / half-life / AUC(0-t) / Tmax / Cmax: both sexes, plasma, analyte d-MPH-CO2CH2-nicotinoyl-L-Ser; for Tmax: read-out: Tmax (median). On the procedure: A human study was conducted to evaluate the pharmacokinetics of d-MPH-CO2CH2-nicotinoyl-L-Ser and d-methylphenidate after oral administration of 60 mg d-MPH-CO2CH2-nicotinoyl-L-Ser chloride gelatin capsules in healthy volunteers under fasted and fed conditions. Fourteen (14) subjects were enrolled in this phase 1, open-label, single dose, two-period, randomized, crossover study. Eligible subjects included healthy male and female volunteers between the age of 18 and 55 years with a body mass index (BMI) between 18 and 32 kg/m^2 and a body weight between 50 and 100 kg at screening.
Two single-dose treatments were administered with a minimum 96-hour washout period between doses. Blood samples for pharmacokinetics were collected pre-dose and at 0.5, 0.75, 1, 1.5, 2, 2.5, 3, 3.5, 4.5, 6, 8, 10, 12, 16, 24, and 36 hours±5 minutes post-dose, in each treatment period.

Structures are written as SMILES. Where a name gives a salt, the structure may show the parent alone. Read-outs that look alike come from different tables or passages of the source.

For the molecule `COC(=O)[C@H](c1ccccc1)[C@H]1CCCCN1C(=O)OC[n+]1cccc(C(=O)N[C@@H](CO)C(=O)O)c1` [d-MPH-CO2CH2-nicotinoyl-L-Ser, d-methylphenidate-CO2CH2-nicotinoyl-L-Ser], the “Plasma concentration of intact prodrug at 24 hours post dose” value in series [1] is recorded as “about 0”. In series [1] (N=24), the “Time until which plasma concentrations of intact prodrug increased” value is reported as “about 2 hours”.

For the molecule `COC(=O)C(c1ccccc1)C1CCCCN1` (stereo not drawn) [unconjugated MPH, methyl 2-phenyl-2-(piperidin-2-yl)acetate], the “d:l Ratio Tmax” value in series [2] worked out at 62%.

Consider `COC(=O)[C@H](c1ccccc1)[C@H]1CCCCN1C(=O)OC[n+]1cccc(C(=O)N[C@H](C(=O)O)[C@@H](C)O)c1.[Cl-]` [d-MPH-CO2CH2-nicotinoyl-L-Thr, 3-(((1S,2R)-1-carboxy-2-hydroxypropyl)carbamoyl)-1-(((R)-2-(2-(R)-methoxy-2-oxo-1-phenylethyl)piperidine-1-carbonyloxy)methyl)pyridium chloride], for which, in series [2], the “d:l Ratio AUC” value is given as ~53% and the “d:l Ratio Cmax” value is given as “about 58%”.

Consider `COC(=O)[C@H](c1ccccc1)[C@H]1CCCCN1.Cl` [d-MPH•HCl, (2R,2′R)-(+)-Methylphenidate hydrochloride], for which, in series [2] (analyte d-MPH), the AUC worked out at 119.2 ng·h/mL, the time to peak (Tmax) came to 24 min and the Cmax was determined as 98.9 ng/mL. Also, in series [2], the “d:l Ratio AUC” value was ~124% and the “d:l Ratio Cmax” value is “about 192%”. In addition, the Tmax in series [3] came out at 24 min. Also, the Tmax entry in series [3] (listed as unconjugated d-methylphenidate) was “about 0.4 h”. For the same molecule, in series [4], the AUC0-1 h was found to be 1110.8 ng·h/mL, the Cmax was found to be 2561.6 ng/mL and the Tmax was 6 min. Also, in series [5], the AUC0-1 h amounted to 312.6 ng·h/mL, the AUC0-2 h was found to be 534.9 ng·h/mL, the Cmax was 541.8 ng/mL and the Tmax is 24 min.

Regarding `COC(=O)[C@@H](c1ccccc1)[C@@H]1CCCCN1C(=O)OC[n+]1cccc(C(=O)N[C@@H](CO)C(=O)[O-])c1` [l-MPH-CO2CH2-nicotinoyl-L-Ser], the “solubility in IPA/IPAc compared to d-MPH-CO2CH2-nicotinoyl-L-Ser” value in series [6] is reported as “significantly higher”.

As to `COC(=O)[C@H](c1ccccc1)[C@H]1CCCCN1C(=O)OC[n+]1cccc(C(=O)N[C@@H](CO)C(=O)O)c1.[Cl-]` [d-MPH-CO2CH2-nicotinoyl-L-Ser chloride, 3-((S)-1-carboxy-2-hydroxyethylcarbamoyl)-1-(((R)-2-(2-(R)-methoxy-2-oxo-1-phenylethyl)piperidine-1-carbonyloxy)methyl)pyridium chloride], in series [7] (both sexes, human, plasma, oral dose mixtures, adult humans, FIGS. 14-25, read-out: Plasma concentration of intact d-MPH-CO2CH2-nicotinoyl-L-Ser chloride at 24 hours post dose), the concentration at 24 h is < 1 ng/mL. In addition, the “Accumulation of intact d-MPH-CO2CH2-nicotinoyl-L-Ser chloride in the bloodstream after the 7th dose” value in series [7] (dose 1 vs dose 7 plasma concentrations at 24 hours) was “negligible”. Moreover, the “Time until which plasma concentrations of intact d-MPH-CO2CH2-nicotinoyl-L-Ser chloride increased” value in series [7] (oral dose mixtures, adult humans, FIGS. 14-25) is “about 2 hours”. The “peak d-MPH exposure in the fed state vs fasted” value in series [8] (analyte d-MPH, single oral 60 mg) was “slightly higher”. In addition, the AUC(0-inf) came to 309 ng·h/mL in series [8] (human, oral, 60 mg, Fasted) and 84.2 ng·h/mL in series [8] (human, oral, 60 mg, Fed). Besides, the half-life in series [8] (human, oral, 60 mg, Fasted) was 350 min; in series [8] (human, oral, 60 mg, Fed), 366 min. In addition, the AUC(0-t) came to 300 ng·h/mL in series [8] (human, oral, 60 mg, Fasted, read-out: AUC0-24 hr); 306 ng·h/mL in series [8] (human, oral, 60 mg, Fasted, read-out: AUC0-last); 77.9 ng·h/mL in series [8] (human, oral, 60 mg, Fed, read-out: AUC0-24 hr); 81.1 ng·h/mL in series [8] (human, oral, 60 mg, Fed, read-out: AUC0-last). The Tmax in series [8] (human, oral, 60 mg, Fasted) worked out at 30 min; in series [8] (human, oral, 60 mg, Fed), 180 min. Moreover, the Cmax stood at 10.2 ng/mL in series [8] (human, oral, 60 mg, Fed) and 75.6 ng/mL in series [8] (Fasted, single oral 60 mg, human adults).

With `COC(=O)[C@@H](c1ccccc1)[C@@H]1CCCCN1` [l-MPH•HCl], in series [2] (analyte l-MPH), the AUC amounted to 96.4 ng·h/mL, the Tmax is 42 min and the Cmax is 51.5 ng/mL.

As to `COC(=O)C(c1ccccc1)C1CCCCN1C(=O)OC[n+]1cccc(C(=O)N[C@H](C(=O)[O-])[C@@H](C)O)c1` (stereo partly drawn) [MPH-CO2CH2-nicotinoyl-L-Thr], in series [2], the “d:l Ratio Tmax” value is given as 57%, the “d:l Ratio AUC” value is reported as 53% and the “d:l Ratio Cmax” value is 58%.

For the molecule `COC(=O)C(c1ccccc1)C1CCCCN1C(=O)OC[n+]1cccc(C(=O)N[C@@H](CO)C(=O)[O-])c1` (stereo partly drawn) [MPH-CO2CH2-nicotinoyl-L-Ser], in series [2], the “d:l Ratio Tmax” value is 182%, the “d:l Ratio AUC” value is recorded as 73% and the “d:l Ratio Cmax” value is reported as 94%.
